For data set [1], the system named is Plasmodium falciparum. The experiment in a line: Antimalarial activity against chloroquine-sensitive Plasmodium falciparum NF54 infected in human erythrocytes incubated for 48 hrs by [3H]hypoxanthine incorporation assay. Type of data set: functional, organism-based.
The nature of data set [2]: Cytotoxicity against African green monkey BGM cells assessed as cell viability after 24 hrs by neutral red assay. In kind it is cell-based. Particulars: chlorocebus aethiops, read-out: MLD50.
The nature of another data set: in vitro. Particulars: monkey.
The subject of data set [3] is Plasmodium falciparum. Put plainly: microbe, parasite or virus in culture. As to conditions: W2, 48 h.
In data set [4] the test system is Plasmodium falciparum. Put plainly: Potency index, ratio of primaquine IC50 to compound IC50 for chloroquine-resistant Plasmodium falciparum W2 infected in human red blood cells. In kind it is functional.

A word on the IC50: it is the midpoint of a concentration-inhibition curve.

Bounds are passed on as bounds.

As to `C[C@@H]1CC[C@H]2[C@@H](C)C(c3cccn3C)O[C@@H]3O[C@@]4(C)CC[C@@H]1[C@]32OO4` (some centres undefined), in the data set on Plasmodium falciparum [1], the IC50 stood at 0.0046 µM.
`CCCCn1c(-c2ccc(F)cc2)c(-c2ccccc2)c(C(=O)Nc2ccccc2)c1C(C)C`: the CC50 at 24 h in data set [2] was more than 2200 µM. For the same compound, in “in vitro”, the selectivity ratio was more than 345. In the data set with Plasmodium falciparum [3], this compound had a half-maximal inhibitory concentration (IC50) of 6.39 µM.
For the compound `CC(C)c1c(C(=O)Nc2ccccc2)c(-c2ccccc2)c(-c2ccc(F)cc2)n1CCCNc1ccnc2cc(Cl)ccc12`, the CC50 at 24 h in data set [2] worked out at 136 µM. In the data set on Plasmodium falciparum [4], the “Ratio IC50” value was 5. For the same compound, the selectivity ratio in the data set “in vitro” was 210. Besides, in the data set with Plasmodium falciparum [3], the IC50 stood at 0.65 µM.
For `CC(C)c1c(C(=O)Nc2ccccc2)c(-c2ccccc2)c(-c2ccc(F)cc2)n1CCNc1ccnc2cc(Cl)ccc12` the same measures were more than 1660 µM, 5, more than 1680 and 0.99 µM.
For `COc1cc(NC(C)CCCn2c(-c3ccc(F)cc3)c(-c3ccccc3)c(C(=O)Nc3ccccc3)c2C(C)C)c2ncccc2c1` (centres undefined) the same measures were more than 1560 µM, 5, more than 1110 and 1.41 µM.
On the same counts, the results for `CC(C)c1c(C(=O)Nc2ccccc2)c(-c2ccccc2)c(-c2ccc(F)cc2)n1CCCCNc1ccnc2cc(Cl)ccc12` are 187 µM, 5, 468 and 0.4 µM.
In the case of `CC(C)c1c(C(=O)Nc2ccccc2)c(-c2ccccc2)c(-c2ccc(F)cc2)n1CC[C@@H](O)C[C@@H](O)CC(=O)O` [ATORVASTATIN], the half-inhibitory concentration (IC50) in the data set with Plasmodium falciparum [3] amounted to 10.3 µM.
Turning to `COc1cc(NC(C)CCCN)c2ncccc2c1` (centres undefined) [PRIMAQUINE], the CC50 at 24 h in data set [2] amounted to 452 µM. Further, the selectivity ratio in the data set “in vitro” turned out to be 239. Further, 1.89 µM corresponded to half-maximal inhibition in the data set on Plasmodium falciparum [3] (IC50).

Source of the values: ChEMBL document CHEMBL3785001, “New pentasubstituted pyrrole hybrid atorvastatin-quinoline derivatives with antiplasmodial activity” (Bioorg Med Chem Lett, 2016).
